Experimental data from patent US7718637B2, “(20S)-23,23-difluoro-methylene-19-nor-bishomopregnacalciferol-vitamin D analogs” (Wisconsin Alumni Research Foundation, priority 2007, dated 2010).
Where two headings read alike, the source gives them in different places.

Key:
HL-60 cells = assay: HL-60 differentiation (nitro blue tetrazolium reduction); type: cell-based, Human; conditions: FIG. 2; for EC50: HL-60 cells, read-out: EC50, HL-60 cell differentiation
Protocol: The study drugs were dissolved in ethanol and the concentrations determined using UV spectrophotometry. Serial dilutions were prepared so that a range of drug concentrations could be tested without changing the final concentration of ethanol (≦0.2%) present in the cell cultures.
Human promyelocytic leukemia (HL60) cells were grown in RPMI-1640 medium containing 10% fetal bovine serum. The cells were incubated at 37° C. in the presence of 5% CO2.
HL60 cells were plated at 1.2×10^5 cells/ml. Eighteen hours after plating, cells in duplicate were treated with drug. Four days later, the cells were harvested and a nitro blue tetrazolium reduction assay was performed (Collins et al., 1979; J. Exp. Med. 149:969-974). The percentage of differentiated cells was determined by counting a total of 200 cells and recording the number that contained intracellular black-blue formazan deposits. Verification of differentiation to monocytic cells was determined by measuring phagocytic activity (data not shown).

[1] = tested on: 24-hydroxylase (24Ohase) gene promoter in ROS 17/2.8 (bone) cells; assay: In vitro transcription assay (24-hydroxylase promoter luciferase reporter); type: cell-based; conditions: FIG. 3; for EC50: ROS 17/2.8 cells, 24-hydroxylase promoter-luciferase, read-out: EC50, transcriptional activity in bone cells
Protocol: In Vitro Transcription Assay
Transcription activity was measured in ROS 17/2.8 (bone) cells that were stably transfected with a 24-hydroxylase (24Ohase) gene promoter upstream of a luciferase reporter gene (Arbour et al., 1998). Cells were given a range of doses. Sixteen hours after dosing the cells were harvested and luciferase activities were measured using a luminometer.
RLU=relative luciferase units.

[2] = Bone calcium mobilization (serum calcium) in vitamin D-deficient rats; type: in vivo, Sprague-Dawley rats; conditions: FIG. 4
Protocol: (§1) Intestinal Calcium Transport and Bone Calcium Mobilization
(§2) Male, weanling Sprague-Dawley rats were placed on Diet 11 (0.47% Ca) diet +AEK oil for one week followed by Diet 11 (0.02% Ca) +AEK oil for 3 weeks. The rats were then switched to a diet containing 0.47% Ca for one week followed by two weeks on a diet containing 0.02% Ca. Dose administration began during the last week on 0.02% calcium diet. Four consecutive ip doses were given approximately 24 hours apart. Twenty-four hours after the last dose, blood was collected from the severed neck and the concentration of serum calcium determined as a measure of bone calcium mobilization. The first 10 cm of the intestine was also collected for intestinal calcium transport analysis using the everted gut sac method.

[3] = Intestinal calcium transport (everted gut sac method) in vitamin D-deficient rats; type: in vivo, Sprague-Dawley rats; conditions: FIG. 5; for intestinal calcium transport: everted gut sac
Protocol: as §1, §2

[4] = target: T1, full-length recombinant rat vitamin D receptor (Rattus norvegicus, UniProt P13053); assay: Vitamin D receptor binding (competition with [3H]-1,25(OH)2D3); conditions: full-length recombinant rat VDR; FIG. 1
T1 construct: Full-length recombinant rat receptor was expressed in E. coli BL21 (DE3) Codon Plus RIL cells; histidine tag (C); made in house; host or cells: E. coli BL21 (DE3) Codon Plus RIL
T1 sequence (P13053 1-423): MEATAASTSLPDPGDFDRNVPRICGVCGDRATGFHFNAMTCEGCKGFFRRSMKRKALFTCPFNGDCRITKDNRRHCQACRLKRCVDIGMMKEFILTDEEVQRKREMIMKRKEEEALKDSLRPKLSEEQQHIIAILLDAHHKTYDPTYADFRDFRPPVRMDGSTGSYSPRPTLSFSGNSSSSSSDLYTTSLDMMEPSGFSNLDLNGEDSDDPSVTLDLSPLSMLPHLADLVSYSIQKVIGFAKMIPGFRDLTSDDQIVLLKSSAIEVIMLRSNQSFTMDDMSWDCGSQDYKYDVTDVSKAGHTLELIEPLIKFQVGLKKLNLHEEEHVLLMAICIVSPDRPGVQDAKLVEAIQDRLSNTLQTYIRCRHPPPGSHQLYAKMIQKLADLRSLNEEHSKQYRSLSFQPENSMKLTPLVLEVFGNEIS
From the text: Vitamin D Receptor Binding
Full-length recombinant rat receptor was expressed in E. coli BL21 (DE3) Codon Plus RIL cells and purified to homogeneity using two different column chromatography systems. The first system was a nickel affinity resin that utilizes the C-terminal histidine tag on this protein. The protein that was eluted from this resin was further purified using ion exchange chromatography (S-Sepharose Fast Flow). Aliquots of the purified protein were quick frozen in liquid nitrogen and stored at −80° C. until use. For use in binding assays, the protein was diluted in TEDK50 (50 mM Tris, 1.5 mM EDTA, pH7.4, 5 mM DTT, 150 mM KCl) with 0.1% Chaps detergent. The receptor protein and ligand concentration were optimized such that no more than 20% of the added radiolabeled ligand was bound to the receptor.
Radiolabeled and unlabeled ligands were added to 100 mcl of the diluted protein at a final ethanol concentration of ≦10%, mixed and incubated overnight on ice to reach binding equilibrium. The following day, 100 mcl of hydroxylapatite slurry (50%) was added to each tube and mixed at 10-minute intervals for 30 minutes. The hydroxylapaptite was collected by centrifugation and then washed three times with Tris-EDTA buffer (50 mM Tris, 1.5 mM EDTA, pH 7.4) containing 0.5% Titron X-100. […] Total binding was determined from the tubes containing only radiolabeled ligand.

SMILES | EC50 (HL-60 cells) [nM] | EC50 [1] [nM] | serum calcium levels (bone calcium mobilization) ([2]; native hormone, dose not given, vitamin D-deficient rats, 0.02% Ca diet) | intestinal calcium transport ([3]; 87 pmol/day) | Ki [4] [nM] | binding to vitamin D receptor compared to standard 1,25-(OH)2D3 (in words) [4] | potency on HL-60 cell differentiation compared to 1,25(OH)2D3 (in words) (HL-60 cells) | EC50 (HL-60 cells; Homo sapiens) [nM] | transcriptional activity in bone cells compared to 1α,25-dihydroxyvitamin D3 (in words) [1] | bone calcium mobilization ([2]; 2340 pmol/day ip for 4 consecutive days, vitamin D-deficient rats, 0.02% Ca diet) | bone calcium mobilization ([2]; 35100 pmol/day, vitamin D-deficient rats, 0.02% Ca diet) | bone calcium mobilization activity compared to 1,25(OH)2D3 (in words) ([2]; overall) | intestinal calcium transport ([3]; 2340 pmol/day) | intestinal calcium transport ([3]; 35100 pmol/day) | intestinal calcium transport activity compared to 1,25(OH)2D3 (in words) ([3]; overall)
C=C1/C(=C\C=C2/CCC[C@]3(C)[C@@H]([C@H](C)CCCC(C)(C)O)CC[C@@H]23)C[C@@H](O)C[C@@H]1O [1α,25-dihydroxyvitamin D3, reference compound] | 3 | 0.3 | increased serum calcium levels | promotes a significant increase | – | – | – | – | – | – | – | – | – | – | –
C=C1[C@H](O)CC(=C/C=C2\CCC[C@]3(C)[C@@H]([C@@H](C)CC(F)F)CC[C@@H]23)C[C@H]1O [FF-55, (20S)-23,23-difluoro-1α-hydroxy-2-methylene-19-nor-bishomopregnacalciferol] | – | 3 | – | – | 0.05 | bound almost equally to the receptor | almost as potent as 1,25(OH)2D3 | 10 | about the same transcriptional activity | did not result in mobilization of bone calcium | without any effect | very little bone calcium mobilization activity | does not promote intestinal calcium transport | significant intestinal calcium transport activity | very little activity
